The values that follow are results of earlier work, collected in patent publication US20100029676A1 (priority 2005, published 2010).

In the series the test system is imatinib-resistant BCR-ABL mutants. The following applies: number of mutants active / tested; Weisberg et al.

Take `Cc1cn(-c2cc(NC(=O)c3ccc(C)c(Nc4nccc(-c5cccnc5)n4)c3)cc(C(F)(F)F)c2)cn1` [AMN107]: the “imatinib-resistant BCR-ABL mutants against which significantly active” value is 32/33.
